# In patent US12637469B2, “1H-pyrazole derivative and application thereof as dual target inhibitor of Syk and VEGFR2” (Ocumension Therapeutics (Suzhou) Co., Ltd., priority 2020, dated 2026):
# Columns and labels:
# Assay in all cases: Eurofins KinaseProfiler off-target kinase inhibition
# Format in all cases: biochemical
# [1] = target: T1, JNK1α1(h) (Homo sapiens, UniProt P45983)
# T1 construct: purchased Eurofins (KinaseProfiler service)
# Method: (§1) In order to investigate the specificity of the inhibition of the target by the compound, in this study, the activity and selectivity of test compound 1 on the off-target kinases in related pathways were tested on the Eurofins kinaseProfiler™ platform, and compound screening and analysis were conducted using IC50 value as the indicator.
# (§2) Compound 1 was detected for each selected kinase using the standard Eurofins Kinase Profiler™ protocol, which followed the relevant standard operating procedures. The IC50 values of the inhibitory activity of the test compound 1 on 67 kinases including Abl(h), B-Raf(h), BTK(h) and JAK(h) were analyzed.
# [2] = target: T2, FGFR2(h) (Homo sapiens, UniProt P21802)
# T2 construct: purchased Eurofins (KinaseProfiler service)
# Method: as §1, §2
# [3] = target: T3, TGFBR1(h) (Homo sapiens, UniProt P36897)
# T3 construct: purchased Eurofins (KinaseProfiler platform)
# Method: as §1, §2
# [4] = target: T4, CDK4/cyclinD3(h) (Homo sapiens, UniProt P11802)
# T4 construct: purchased Eurofins (KinaseProfiler platform)
# Method: as §1, §2
# [5] = target: T5, cSRC(h) (Homo sapiens, UniProt P12931)
# T5 construct: purchased Eurofins (KinaseProfiler platform)
# Method: as §1, §2
# [6] = target: T6, MAP4K4(h) (Homo sapiens, UniProt O95819)
# T6 construct: purchased Eurofins (KinaseProfiler service)
# Method: as §1, §2
# [7] = target: T7, CDK6/cyclinD3(h) (Homo sapiens, UniProt Q00534)
# T7 construct: purchased Eurofins (KinaseProfiler platform)
# Method: as §1, §2
# [8] = target: T8, B-Raf(h) (Homo sapiens, UniProt P15056)
# T8 construct: purchased Eurofins (KinaseProfiler platform)
# Method: as §1, §2
# [9] = target: T9, Aurora-B(h) (Homo sapiens, UniProt Q96GD4)
# T9 construct: purchased Eurofins (KinaseProfiler platform)
# Method: as §1, §2
# [10] = target: T10, FGFR3(h) (Homo sapiens, UniProt P22607)
# T10 construct: purchased Eurofins (KinaseProfiler platform)
# Method: as §1, §2
# [11] = target: T11, EGFR(h) (Homo sapiens, UniProt P00533)
# T11 construct: purchased Eurofins (KinaseProfiler platform)
# Method: as §1, §2
# [12] = target: T12, Lyn(h) (Homo sapiens, UniProt P07948)
# T12 construct: purchased Eurofins (KinaseProfiler service)
# Method: as §1, §2
# [13] = target: T13, ACTR2(h) (Homo sapiens, UniProt P27037)
# T13 construct: purchased Eurofins (KinaseProfiler platform)
# Method: as §1, §2
# [14] = target: T14, Ret(h) (Homo sapiens, UniProt P07949)
# T14 construct: purchased Eurofins (KinaseProfiler platform)
# Method: as §1, §2
# [15] = target: T15, MKK6(h) (Homo sapiens, UniProt P52564)
# T15 construct: purchased Eurofins (KinaseProfiler service)
# Method: as §1, §2
# [16] = target: T16, IKKβ(h) (Homo sapiens, UniProt O14920)
# T16 construct: purchased Eurofins (KinaseProfiler platform)
# Method: as §1, §2
# [17] = target: T17, mTOR(h) (Homo sapiens, UniProt P42345)
# T17 construct: purchased Eurofins (KinaseProfiler service)
# Method: as §1, §2
# [18] = target: T18, MSK1(h) (Homo sapiens, UniProt O75582)
# T18 construct: purchased Eurofins (KinaseProfiler service)
# Method: as §1, §2
# [19] = target: T19, CK1ε(h) (Homo sapiens, UniProt P49674)
# T19 construct: purchased Eurofins (KinaseProfiler platform)
# Method: as §1, §2
# [20] = target: T20, Txk(h) (Homo sapiens, UniProt P42681)
# T20 construct: purchased Eurofins (KinaseProfiler platform)
# Method: as §1, §2
# [21] = target: T21, Yes(h) (Homo sapiens, UniProt P07947)
# T21 construct: purchased Eurofins (KinaseProfiler platform)
# Method: as §1, §2
# [22] = target: T22, IR(h) (Homo sapiens, UniProt P06213)
# T22 construct: purchased Eurofins (KinaseProfiler service)
# Method: as §1, §2
# [23] = target: T23, Flt1(h) (Homo sapiens, UniProt P17948)
# T23 construct: purchased Eurofins (KinaseProfiler platform)
# Method: as §1, §2
# [24] = target: T24, MEK1(h) (Homo sapiens, UniProt Q02750)
# T24 construct: purchased Eurofins (KinaseProfiler service)
# Method: as §1, §2
# [25] = target: T25, PKBα(h) (Homo sapiens, UniProt P31749)
# T25 construct: purchased Eurofins (KinaseProfiler platform)
# Method: as §1, §2
# [26] = target: T26, TrkA(h) (Homo sapiens, UniProt P04629)
# T26 construct: purchased Eurofins (KinaseProfiler platform)
# Method: as §1, §2
# [27] = target: T27, Hck(h)activated (Homo sapiens, UniProt P08631)
# T27 construct: purchased Eurofins (KinaseProfiler service)
# Method: as §1, §2
# [28] = target: T28, PKA(h) (Homo sapiens, UniProt P17612)
# T28 construct: purchased Eurofins (KinaseProfiler service)
# Method: as §1, §2
# [29] = target: T29, BRK(h) (Homo sapiens, UniProt Q13882)
# T29 construct: purchased Eurofins (KinaseProfiler platform)
# Method: as §1, §2
# [30] = target: T30, MAPK1(h) (Homo sapiens, UniProt P27361)
# T30 construct: purchased Eurofins (KinaseProfiler service)
# Method: as §1, §2
# [31] = target: T31, Src(T341M)(h) (Homo sapiens, UniProt P12931, T341M)
# T31 construct: purchased Eurofins (KinaseProfiler platform)
# Method: as §1, §2
# [32] = target: T32, JNK3(h) (Homo sapiens, UniProt P53779)
# T32 construct: purchased Eurofins (KinaseProfiler service)
# Method: as §1, §2
# [33] = target: T33, c-kit(h) (Homo sapiens, UniProt P10721)
# T33 construct: purchased Eurofins (KinaseProfiler platform)
# Method: as §1, §2
# [34] = target: T34, TYK2(h) (Homo sapiens, UniProt P29597)
# T34 construct: purchased Eurofins (KinaseProfiler platform)
# Method: as §1, §2
# [35] = target: T35, Lck(h)activated (Homo sapiens, UniProt P06239)
# T35 construct: purchased Eurofins (KinaseProfiler service)
# Method: as §1, §2
# [36] = target: T36, ErbB2(h) (Homo sapiens, UniProt P04626)
# T36 construct: purchased Eurofins (KinaseProfiler platform)
# Method: as §1, §2
# [37] = target: T37, Flt3(h) (Homo sapiens, UniProt P36888)
# T37 construct: purchased Eurofins (KinaseProfiler platform)
# Method: as §1, §2
# [38] = target: T38, MEK2(h) (Homo sapiens, UniProt P36507)
# T38 construct: purchased Eurofins (KinaseProfiler service)
# Method: as §1, §2
# [39] = target: T39, Itk(h) (Homo sapiens, UniProt Q08881)
# T39 construct: purchased Eurofins (KinaseProfiler service)
# Method: as §1, §2
# T3 sequence (P36897 34-503): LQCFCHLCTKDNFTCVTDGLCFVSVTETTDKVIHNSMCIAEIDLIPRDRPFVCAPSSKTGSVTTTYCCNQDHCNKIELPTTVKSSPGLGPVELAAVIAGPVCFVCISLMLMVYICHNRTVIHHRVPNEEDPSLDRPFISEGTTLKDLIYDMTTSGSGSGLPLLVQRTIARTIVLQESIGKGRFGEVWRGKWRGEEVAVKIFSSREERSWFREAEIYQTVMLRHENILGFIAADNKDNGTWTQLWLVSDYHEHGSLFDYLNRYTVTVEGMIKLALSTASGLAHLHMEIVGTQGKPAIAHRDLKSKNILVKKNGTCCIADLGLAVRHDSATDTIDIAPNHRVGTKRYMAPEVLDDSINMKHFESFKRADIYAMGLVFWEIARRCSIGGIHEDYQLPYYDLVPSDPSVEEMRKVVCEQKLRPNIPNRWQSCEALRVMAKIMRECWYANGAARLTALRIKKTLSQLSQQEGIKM
# T7 sequence (Q00534 whole entry): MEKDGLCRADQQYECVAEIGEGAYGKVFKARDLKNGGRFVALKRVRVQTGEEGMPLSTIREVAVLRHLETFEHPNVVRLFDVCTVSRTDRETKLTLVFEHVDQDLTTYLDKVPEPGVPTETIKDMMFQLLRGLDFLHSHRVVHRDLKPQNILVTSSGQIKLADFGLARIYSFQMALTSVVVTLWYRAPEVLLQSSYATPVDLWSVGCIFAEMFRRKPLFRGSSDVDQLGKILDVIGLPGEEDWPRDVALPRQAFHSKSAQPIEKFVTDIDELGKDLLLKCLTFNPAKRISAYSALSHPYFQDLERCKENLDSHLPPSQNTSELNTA
# T7 sequence (P30281 whole entry partner): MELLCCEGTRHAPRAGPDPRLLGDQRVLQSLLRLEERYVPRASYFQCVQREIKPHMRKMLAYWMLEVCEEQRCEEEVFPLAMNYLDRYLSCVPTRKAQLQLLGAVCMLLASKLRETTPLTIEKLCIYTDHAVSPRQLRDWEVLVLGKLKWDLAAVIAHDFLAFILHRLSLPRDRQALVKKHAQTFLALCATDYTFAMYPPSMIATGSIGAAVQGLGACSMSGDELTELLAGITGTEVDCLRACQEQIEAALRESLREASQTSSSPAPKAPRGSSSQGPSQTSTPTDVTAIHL
# T14 sequence (P07949 29-1114): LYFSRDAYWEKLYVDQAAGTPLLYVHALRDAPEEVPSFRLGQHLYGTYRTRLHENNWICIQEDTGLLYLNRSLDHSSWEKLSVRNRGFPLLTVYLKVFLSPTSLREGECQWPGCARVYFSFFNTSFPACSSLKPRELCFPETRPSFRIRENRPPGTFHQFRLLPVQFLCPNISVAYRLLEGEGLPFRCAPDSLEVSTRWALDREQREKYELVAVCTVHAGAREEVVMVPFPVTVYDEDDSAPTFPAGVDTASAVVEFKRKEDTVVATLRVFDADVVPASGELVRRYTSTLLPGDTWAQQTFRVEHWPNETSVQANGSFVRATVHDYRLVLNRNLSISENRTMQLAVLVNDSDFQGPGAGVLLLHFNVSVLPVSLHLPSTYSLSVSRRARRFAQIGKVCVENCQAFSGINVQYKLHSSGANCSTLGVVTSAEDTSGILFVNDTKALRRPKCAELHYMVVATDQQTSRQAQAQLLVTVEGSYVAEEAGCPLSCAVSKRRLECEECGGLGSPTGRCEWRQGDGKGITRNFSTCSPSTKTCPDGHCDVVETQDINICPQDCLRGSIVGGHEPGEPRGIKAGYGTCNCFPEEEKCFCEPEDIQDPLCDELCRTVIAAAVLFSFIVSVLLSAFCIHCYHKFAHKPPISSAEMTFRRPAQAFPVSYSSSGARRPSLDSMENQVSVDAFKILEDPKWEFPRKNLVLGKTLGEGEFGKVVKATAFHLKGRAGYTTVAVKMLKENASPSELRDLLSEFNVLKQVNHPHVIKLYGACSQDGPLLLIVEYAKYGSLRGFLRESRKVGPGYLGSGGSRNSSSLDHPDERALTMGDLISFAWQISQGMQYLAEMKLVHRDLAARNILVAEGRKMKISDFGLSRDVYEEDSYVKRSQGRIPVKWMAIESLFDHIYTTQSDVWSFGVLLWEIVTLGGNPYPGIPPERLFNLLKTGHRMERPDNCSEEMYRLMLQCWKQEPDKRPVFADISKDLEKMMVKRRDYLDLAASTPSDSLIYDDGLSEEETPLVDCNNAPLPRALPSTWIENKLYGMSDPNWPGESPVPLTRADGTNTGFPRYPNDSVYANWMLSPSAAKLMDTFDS
# T12 sequence (P07948 whole entry): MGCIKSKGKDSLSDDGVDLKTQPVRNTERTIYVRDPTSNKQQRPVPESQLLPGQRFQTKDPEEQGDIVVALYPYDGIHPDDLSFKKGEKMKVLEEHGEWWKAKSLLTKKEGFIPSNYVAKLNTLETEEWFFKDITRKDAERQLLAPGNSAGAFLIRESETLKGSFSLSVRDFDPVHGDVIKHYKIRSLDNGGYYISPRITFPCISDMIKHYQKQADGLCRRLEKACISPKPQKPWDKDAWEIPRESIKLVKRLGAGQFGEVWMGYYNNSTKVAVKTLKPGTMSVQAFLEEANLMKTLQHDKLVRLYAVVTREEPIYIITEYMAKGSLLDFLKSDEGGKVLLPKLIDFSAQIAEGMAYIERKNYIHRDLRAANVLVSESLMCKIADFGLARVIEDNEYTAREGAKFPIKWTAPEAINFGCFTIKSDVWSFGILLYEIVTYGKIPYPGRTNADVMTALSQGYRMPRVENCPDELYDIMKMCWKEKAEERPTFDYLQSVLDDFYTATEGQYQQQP
# T31 sequence (P12931 whole entry T341M): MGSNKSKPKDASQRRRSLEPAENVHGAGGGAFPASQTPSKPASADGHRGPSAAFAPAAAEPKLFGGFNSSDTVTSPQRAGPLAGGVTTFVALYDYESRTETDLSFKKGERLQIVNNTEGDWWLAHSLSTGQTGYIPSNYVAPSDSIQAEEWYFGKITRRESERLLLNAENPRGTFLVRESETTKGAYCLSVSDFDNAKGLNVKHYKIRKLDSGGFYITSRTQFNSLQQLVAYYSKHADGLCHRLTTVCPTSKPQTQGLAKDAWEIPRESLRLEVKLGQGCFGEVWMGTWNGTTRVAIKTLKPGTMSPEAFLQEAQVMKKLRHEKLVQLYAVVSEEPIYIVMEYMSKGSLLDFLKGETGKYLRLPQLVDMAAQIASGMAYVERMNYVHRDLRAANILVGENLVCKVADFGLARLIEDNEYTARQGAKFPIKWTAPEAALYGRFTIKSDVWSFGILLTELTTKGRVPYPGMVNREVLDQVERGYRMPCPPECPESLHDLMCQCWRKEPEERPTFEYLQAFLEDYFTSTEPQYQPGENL
# T16 sequence (O14920 whole entry): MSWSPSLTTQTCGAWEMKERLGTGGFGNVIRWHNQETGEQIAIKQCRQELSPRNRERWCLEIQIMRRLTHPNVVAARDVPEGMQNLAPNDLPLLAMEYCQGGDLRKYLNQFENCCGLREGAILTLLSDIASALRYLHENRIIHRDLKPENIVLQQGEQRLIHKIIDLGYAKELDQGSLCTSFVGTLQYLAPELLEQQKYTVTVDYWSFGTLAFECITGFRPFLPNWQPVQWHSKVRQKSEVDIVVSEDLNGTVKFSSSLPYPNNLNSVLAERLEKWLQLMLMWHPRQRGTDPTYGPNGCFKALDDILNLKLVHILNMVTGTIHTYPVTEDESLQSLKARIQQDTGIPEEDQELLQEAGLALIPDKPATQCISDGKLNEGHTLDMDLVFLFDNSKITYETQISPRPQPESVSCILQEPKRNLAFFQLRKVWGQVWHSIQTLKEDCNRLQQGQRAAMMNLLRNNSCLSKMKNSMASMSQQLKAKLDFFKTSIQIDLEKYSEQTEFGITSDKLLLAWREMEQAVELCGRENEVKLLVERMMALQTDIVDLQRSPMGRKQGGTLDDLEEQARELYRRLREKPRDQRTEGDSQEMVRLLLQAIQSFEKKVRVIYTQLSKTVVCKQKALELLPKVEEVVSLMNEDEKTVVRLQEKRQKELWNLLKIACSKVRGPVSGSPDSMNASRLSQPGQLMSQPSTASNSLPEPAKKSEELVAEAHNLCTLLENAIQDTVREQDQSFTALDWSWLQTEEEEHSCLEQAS
# T21 sequence (P07947 whole entry): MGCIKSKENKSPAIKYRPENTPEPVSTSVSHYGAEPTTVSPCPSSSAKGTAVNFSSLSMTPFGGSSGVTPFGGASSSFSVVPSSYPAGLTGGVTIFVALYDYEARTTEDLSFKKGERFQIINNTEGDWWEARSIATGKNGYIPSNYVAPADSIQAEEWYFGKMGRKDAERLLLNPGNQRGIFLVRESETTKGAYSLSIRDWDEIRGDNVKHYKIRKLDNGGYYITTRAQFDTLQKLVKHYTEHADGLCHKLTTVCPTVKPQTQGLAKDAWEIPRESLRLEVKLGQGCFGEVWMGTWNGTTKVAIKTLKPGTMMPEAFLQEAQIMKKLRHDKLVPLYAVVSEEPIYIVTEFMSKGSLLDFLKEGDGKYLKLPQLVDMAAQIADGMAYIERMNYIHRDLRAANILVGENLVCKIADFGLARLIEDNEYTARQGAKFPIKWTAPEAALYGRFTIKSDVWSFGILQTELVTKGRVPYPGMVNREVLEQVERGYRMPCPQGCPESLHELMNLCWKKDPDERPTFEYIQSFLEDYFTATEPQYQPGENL
# T9 sequence (Q96GD4 whole entry): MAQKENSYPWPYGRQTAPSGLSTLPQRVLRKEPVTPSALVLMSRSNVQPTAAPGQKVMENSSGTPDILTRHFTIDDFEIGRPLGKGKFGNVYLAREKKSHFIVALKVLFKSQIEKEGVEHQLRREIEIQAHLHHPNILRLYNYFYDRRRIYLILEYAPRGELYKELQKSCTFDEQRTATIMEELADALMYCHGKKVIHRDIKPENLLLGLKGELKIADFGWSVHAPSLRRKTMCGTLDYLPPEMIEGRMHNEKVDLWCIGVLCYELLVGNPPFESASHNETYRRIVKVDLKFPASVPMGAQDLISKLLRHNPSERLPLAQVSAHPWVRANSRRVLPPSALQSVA
smiles,measurement,setting,value
c1cn2c(n1)c(Nc1ccc(N3CCOCC3)cc1)nc1ccc(-c3cn[nH]c3)cc12 [Compound 1],IC50,[1],1170 nM
same,IC50,[2],> 10000 nM
same,IC50,[3],> 10000 nM
same,IC50,[4],> 10000 nM
same,IC50,[5],367 nM
same,IC50,[6],63 nM
same,IC50,[7],> 10000 nM
same,IC50,[8],91 nM
same,IC50,[9],232 nM
same,IC50,[10],> 10000 nM
same,IC50,[11],> 10000 nM
same,IC50,[12],934 nM
same,IC50,[13],> 10000 nM
same,IC50,[14],756 nM
same,IC50,[15],> 10000 nM
same,IC50,[16],> 10000 nM
same,IC50,[17],> 10000 nM
same,IC50,[18],> 10000 nM
same,IC50,[19],385 nM
same,IC50,[20],227 nM
same,IC50,[21],204 nM
same,IC50,[22],> 10000 nM
same,IC50,[23],104 nM
same,IC50,[24],> 10000 nM
same,IC50,[25],> 10000 nM
same,IC50,[26],112 nM
same,IC50,[27],418 nM
same,IC50,[28],> 10000 nM
same,IC50,[29],775 nM
same,IC50,[30],> 10000 nM
same,IC50,[31],1010 nM
same,IC50,[32],279 nM
same,IC50,[33],2840 nM
same,IC50,[34],117 nM
same,IC50,[35],1310 nM
same,IC50,[36],> 10000 nM
same,IC50,[37],12 nM
same,IC50,[38],> 10000 nM
same,IC50,[39],1850 nM
